Results from patent US20090317383A1, “CANCER TREATMENT METHOD” (priority 2004, published 2009).

Experiments:
[1] = tested on: EGFR and erbB2 kinases; details: Rusnak et al., 2001b; Xia et al., 2002; cited from earlier work
[2] = tested on: tumor cells overexpressing EGFR or erbB2; details: Rusnak et al., 2001b; Xia et al., 2002; cited from earlier work
[3] = tested on: MCF-7 human breast cancer cells; test: Cell growth, MTT tetrazolium dye assay; type: cell-based; details: 1-10 uM
Description: (§1) The effect of a combination of lapatanib with a Bcl-2 inhibitor (HA14-1) on the growth of MCF-7 human breast cancer cells, a HER-2/neu transfected MCF-7 cell line and a tamoxifen (TAM) resistant MCF-7 cell line was examined. Cell growth was determined using the MTT tetrazolium dye assay. Cells were dosed with Lapatinib and HA14-1 as monotherapies.

[4] = tested on: HER-2/neu transfected MCF-7 cell line; test: Cell growth, MTT tetrazolium dye assay; type: cell-based, human; details: 1-10 uM
Description: as §1

[5] = tested on: tamoxifen (TAM) resistant MCF-7 cell line; test: Cell growth, MTT tetrazolium dye assay; type: cell-based, human; details: 1-10 uM
Description: as §1

[6] = tested on: BT474 tumors; test: BT474 vs. Lapatinib and Docetaxel Combination (mice with BT474 tumors); type: in vivo
Description: Mice with BT474 tumors were administered lapatinib alone (200 and 100 mg/kg; SID×21 Days, or 2 days and 1 day before docetaxel) and in combination with docetaxel (25 and 50 mg/kg IP, once weekly×3 weeks).
In the first experiment there were no deaths, and in the second experiment there was one death in a group of eight mice receiving docetaxel (25 mg/kg) and lapatinib (200 mg/kg×21 days). All surviving mice rapidly regained body weight when dosing was completed. The treatment groups and results follow.

SMILES: CS(=O)(=O)CCNCc1ccc(-c2ccc3ncnc(Nc4ccc(OCc5cccc(F)c5)c(Cl)c4)c3c2)o1 [GW572016, N-{3-chloro-4-[(3-fluorobenzyl)oxy]phenyl}-6-[5-({[2-(methanesulphonyl)ethyl]amino}methyl)-2-furyl]-4-quinazolinamine]
- Kinase inhibition in human xenograft studies [1]: dose-dependent kinase inhibition
- Selectivity of tumor cell inhibition [2]: selectively inhibits tumor cells overexpressing EGFR or erbB2

SMILES: CCOC(=O)C1=C(N)Oc2ccc(Br)cc2C1C(C#N)C(=O)OCC (stereo not drawn) [HA14-1, ethyl [2-amino-6-bromo-4-(1-cyano-2-ethoxy-2oxoethyl)]4H-chromene-3-carboxylate, reference compound]
- Cell growth inhibition, monotherapy [3]: dose-dependent growth inhibition
- Cell growth inhibition, monotherapy [4]: dose-dependent growth inhibition
- Cell growth inhibition, monotherapy [5]: dose-dependent growth inhibition

SMILES: CC(=O)O[C@@]12CO[C@@H]1C[C@H](O)[C@@]1(C)C(=O)[C@H](O)C3=C(C)[C@@H](OC(=O)[C@H](O)[C@@H](NC(=O)OC(C)(C)C)c4ccccc4)C[C@@](O)([C@@H](OC(=O)c4ccccc4)[C@H]21)C3(C)C [docetaxel, (2R,3S)-N-carboxy-3-phenylisoserine,N-tert-butyl ester, 13-ester with 5β-20-epoxy-1,2α,4,7β,10β,13α-hexahydroxytax-11-en-9-one 4-acetate 2-benzoate, trihydrate]
- Body weight ([6]; 25 and 50 mg/kg, after 3 weekly doses, both experiments): caused weight loss
- % Inhibition ([6]; Tax-25 (25 mg/kg IP), Days 3, 10, 17): 77%
- % Inhibition ([6]; Tax-50 (50 mg/kg IP), Days 3, 10, 17): 98%
- Efficacy against BT474 tumors (in words) ([6]; docetaxel at 50 mg/kg, both experiments): highly effective

SMILES: CS(=O)(=O)CCNCc1ccc(-c2ccc3ncnc(Nc4ccc(OCc5cccc(F)c5)c(Cl)c4)c3c2)o1.Cc1ccc(S(=O)(=O)O)cc1 [lapatinib, N-{3-Chloro-4-[(3-fluorobenzyl)oxy]phenyl}-6-[5-({[2-(methanesulphonyl)ethyl]amino}methyl)-2-furyl]-4-quinazolinamine ditosylate monhydrate]
- % Inhibition ([6]; GW016-100 (100 mg/kg), sid × 21 days): 79%
- % Inhibition ([6]; GW016-200 (200 mg/kg), sid × 21 Days): 102%
- % Inhibition ([6]; GW016-200, twice weekly on consecutive days × 3 weeks): 58%
- Cell growth inhibition, monotherapy [3]: dose-dependent growth inhibition
- Cell growth inhibition, monotherapy [4]: dose-dependent growth inhibition
- Cell growth inhibition, monotherapy [5]: dose-dependent growth inhibition
